# Assay results: ChEMBL document CHEMBL1156345, “Suillusin, a unique benzofuran from the mushroom Suillus granulatus” (J Nat Prod, 2001)
# Calls of active or inactive are those of the source. No cut-off for these calls is given here.
# Columns and labels:
# [1] = test system: Radical scavenging activity; assay: Antioxidant activity assessed as DPPH radical scavenging activity at 100 ug/mL; format: functional
# A549 = assay: Cytotoxicity against human A549 cells at 30 ug/mL after 48 hrs by SRB assay; format: functional, cell-based
# UACC-62 = assay: Cytotoxicity against human UACC62 cells after 48 hrs by SRB assay; format: functional, cell-based; conditions: UACC-62, 48 h
# SK-OV-3 = assay: Cytotoxicity against human SKOV3 cells at 30 ug/mL after 48 hrs by SRB assay; format: functional, cell-based
# SW-620 = assay: Cytotoxicity against human SW620 cells after 48 hrs by SRB assay; format: functional, cell-based; conditions: SW-620, 48 h
# HCT-15 = assay: Cytotoxicity against human HCT15 cells at 30 ug/mL after 48 hrs by SRB assay; format: functional, cell-based
# PC-3 = assay: Cytotoxicity against human PC3 cells at 30 ug/mL after 48 hrs by SRB assay; format: functional, cell-based
Molecule,Activity [1],Activity (A549),IC50 (UACC-62),Activity (SK-OV-3),IC50 (SW-620),Activity (HCT-15),Activity (PC-3)
VITAMIN E,73%,,,,,,
COC(=O)[C@@]12Oc3ccc(O)cc3[C@@H]1C(=O)C(O)=C2c1ccc(O)c(O)c1 [SUILLUSIN],30%,Active,12 µg/mL,Active,20 µg/mL,Active,Active
